Results taken from US20230052152A1, “COMPOUNDS FOR TREATMENT OF ALZHEIMER'S DISEASE” (SULFATEQ B.V., priority 2019, published 2023).
Entries after “also recorded” stand apart in the source; their conditions may differ.

Key:
SH-SY5Y cells [1] = assay: Glutamate-induced excitotoxicity, differentiated SH-SY5Y neuronal-like cells, Neutral Red viability; format: cell-based; conditions: Homo sapiens, 60 mM glutamate 24 h; for EC50: 30 min pre-incubation, Neutral Red viability; for Emax: maximal restoration of viability
Experimental: (§1) Human SH-SY5Y neuroblastoma cells (ATCC #CRL-2266) were maintained in DMEM medium containing 10% fetal bovine serum and 1% Penicillin-Streptomycin solution (#P4333, Sigma-Aldrich, St. Louis, Mo.) and passaged when the cultures reach a confluency of 70%. Prior to experiments, SH-SY5Y cells were differentiated by serum reduction (to 1%) and stimulation with 10 μM retinoic acid (#R7882, Sigma-Aldrich, St. Louis, Mo.) for 72 hours. Differentiated SH-SY5Y cells were seeded at 0.6·10^5 cells/cm^2 for all experiments.
(§2) Differentiated SH-SY5Y cells were pre-incubated with SUL compounds (dose range 8·10^−4 to 1·10^−8 M) under standard culture conditions for 30 min and then stimulated with either 1-glutamate (60 mM; #12843-0, Sigma-Aldrich, St. Louis, Mo.) or dopamine (100 μM; #H8502, Sigma, St. Louis, Mo.) for an additional 24 h. Neutral Red Assay Solution (#N2889, Sigma-Aldrich, St. Louis, Mo.) was added to the cultures at a 10% (v/v) concentration during the final 4 hours of culture. Cells were washed with warm PBS and Neutral red solubilized in acid ethanol (1% acetic acid in 50% EtOH). Absorbances were recorded at 540 nm in a CLARIOStar Plus plate reader (BMG Labtech, Germany).
(§3) All experiments were performed in triplicate per condition and averaged. Data obtained from two individual experiments were used for evaluation in GraphPad Prism 8.0 (GraphPad Software Inc, Ca). 4 parameter non-linear regression was used to determine the efficacy and potency of SUL compounds to reduce the excitotoxicity induced by either 1-glutamate or dopamine.
SH-SY5Y neuroblastoma cells were differentiated into neuronal-like cells according to established protocols and stimulated with 60 mM glutamate to induce excitotoxicity.

SH-SY5Y cells [2] = assay: Dopamine-induced excitotoxicity, differentiated SH-SY5Y neuronal-like cells, Neutral Red viability; format: cell-based; conditions: Homo sapiens, dopamine 24 h; for EC50: 30 min pre-incubation, Neutral Red viability; for Emax: maximal restoration of viability
Experimental: as §1, §2, §3
Differentiated SH-SY5Y neuroblastoma cells were stimulated with 150 μM dopamine to induce excitotoxicity.

SH-SY5Y cells [3] = assay: Glutamate-induced excitotoxicity, differentiated SH-SY5Y neuronal-like cells, Neutral Red viability; format: cell-based, human; conditions: 60 mM glutamate, 10^−3 to 10^−8 M
WT and APP/PS1 mice [4] = assay: Fear conditioning (hippocampal dependent context memory test), freezing; format: in vivo, mouse; conditions: chronic oral via food 2.5 to 6 moa, versus vehicle food
Source text: (§4) The APP/PS1 mouse model is a widely used A-beta pathology model for Alzheimer's disease (AD) (1 of the 2 main neuropathological hallmarks of AD). These mice contain human transgenes for APP (Swedish mutation) and PSEN1 (L166P mutation), which will lead to pathological amyloid deposition in the brain and impairments in hippocampal dependent memory and Long Term Potentiation (LTP) starting at ˜3 months of age (3 moa).
(§5) The effectiveness of SUL-138 ((6-hydroxy-2,5,7,8-tetramethylchroman-2-yl)(4-(2-hydroxyethyl)piperazin-1-yl)methanone) in relieving/preventing common pathology in the APP/PS1 model was tested. The effect on memory was tested in a hippocampal dependent context test (Fear conditioning (FC)) and synaptic connectivity was tested via electrophysiological LTP (Long-term potentiation) measurements. Both are impaired in this mouse model under basal conditions. In addition, Phenotypers (Sylics) were used to exclude that SUL-138 induces atypical behavior after chronic oral treatment.
Wild type (WT) and APP/PS1 mice were each divided in 2 groups, either receiving vehicle or SUL-138 via their food. Group size amounted 12 animals. […]
FC: mice were exposed to a context for 2 min after which they received a 0.7 mA footshock. […] 24 h later mice were put in the same context and freezing levels were measured for 2 min.
Memory was assessed at 6 moa by measuring freezing following context acquisition.

WT and APP/PS1 mice [5] = assay: Long-term potentiation (LTP) in acute hippocampal slices after chronic oral treatment; format: in vivo, mouse; conditions: 3×100 Hz stimulation, p<0.05
Source text: as §4
(§6) Wild type (WT) and APP/PS1 mice were each divided in 2 groups, either receiving vehicle or SUL-138 via their food. Group size amounted 12 animals. Based on mouse weight of ˜30 g, food intake of ˜5 g/day and desired oral intake of 30 mg/day/kg, food pellets were sprayed with SUL-138 in water with 0.0145% ethanol at 1 g SUL-138 in 5 kg food. Vehicle food was prepared by spraying with the same volume of 0.0145% ethanol containing water.
(§7) Mice were treated chronically between 2.5 moa (pre-pathology/memory deficit) and 6 moa (age at which clear neuropathology and memory deficits occur) prior to testing.
LTP: Acute coronal hippocampal slices were kept in artificial CSF and LTP was measured after 3×100 Hz stimulation.
Between 8-14 hippocampal slices per group (2A: WT ctrl, WT SUL-138, 2B: APP ctrl, APP SUL-138) received LTP evoked by 3×100 Hz stimulation (tetanus) of 1 sec separated by 20 sec. The slope was measured for 60 min. LTP was expressed as a percentage of baseline. […]

WT and APP/PS1 mice [6] = assay: Phenotypers spontaneous behavior after chronic oral treatment; format: in vivo, mouse; conditions: 3 days in phenotypers
Experimental: as §5, §6
Phenotypers (provided by Sylics, Amsterdam, Netherlands): Mice were housed in the phenotypers for 3 days during which spontaneous behavior: activity, dark/light, habituation, kinematics, light dark phase transition pattern and sheltering were measured.

[7] = Overall welfare and body weight during chronic oral treatment; format: in vivo, mouse; conditions: vehicle versus SUL-138 treated animals
Experimental: as §6, §7

APP/PS1 mice = assay: Plaque load (anti-Amyloid beta 6E10 staining of hippocampal slices); format: in vivo, mouse; conditions: three months oral, versus vehicle
Experimental: APP/PS1 (n=10) and wildtype mice (WT, n=10) mice were treated, either with vehicle or SUL-138. Mice were treated for 3 months starting at 3 months of age with either SUL-138 or vehicle treated food pellets. The mice were sacrificed at 6 months of age, the age at which (among others) hippocampal dependent memory impairment and apparent plaque load are expected.
4% PFA perfused brains, stored on sucrose, were sliced at […] using a cryostat (−20° C.; Leica). Hippocampal slices (n=2/animal; 5 animals/group) were washed 3×10 min with 1× PBS, and then blocked for 1 h in Blocking solution (10 mL 1× PBS+500 μL normal Goat Serum+0.250 g Bovine Serum Albumin+20 μL Triton-100). The slices were incubated overnight with anti-Amyloid beta (6E10) (ITK Diagnostics, 1:400), washed 3×10 min with 1× PBS and then incubated with secondary Goat anti-mouse Alexa fluorescent 488 antibody (Sigma-Aldrich, 1:250) for 2 h. Then slices were washed 3×10 min with 1× PBS and mounted on slides.
Slices were imaged using the Zeiss Cell Discover 7 high content microscope with LSM900 confocal head. Using Fiji, both hippocampi were selected separately for 5 animals per group (yellow line in FIG. 3A) and number and size of plaques were measured (FIG. 3B, C). The mean number of plaques and plaque size per animal were used for statistical analyses in GraphPad 8 using Student's t-test, one-sided.

Bioavailability in brain = format: in vivo
[8] = test system: prostaglandin synthases and the thromboxane synthase A; assay: Hippocampal protein expression of prostaglandin synthases and thromboxane synthase A; format: in vivo, mouse; conditions: hippocampal tissue, wildtype or APP/PS1 mice
Source text: Hippocampal tissue from wildtype and APP/PS1 mice was examined for the protein expression of prostaglandin synthases and the thromboxane synthase A. Peptides resembling the prostaglandin synthase PTGS1, PTGES2, PTGES3, and PTGFS were found in the hippocampal tissue of both wildtype and APP/PS1 mice (Table 4). No protein fragments of PTGS2, PTGDS, PTGES1, PTGIS and TXA could be found.

| Structure (SMILES) | EC50 (SH-SY5Y cells [1]) | Emax (SH-SY5Y cells [1]) | EC50 (SH-SY5Y cells [2]) | Emax (SH-SY5Y cells [2]) | Effectiveness in increasing viability of glutamate-challenged cells versus the other SUL-compounds (SH-SY5Y cells [3]) | Freezing levels (memory) (WT and APP/PS1 mice [4]; APP/PS1 mice) | Freezing levels (memory) (WT and APP/PS1 mice [4]; WT mice) | LTP maintenance (min 30-60) (WT and APP/PS1 mice [5]; APP mice) | LTP maintenance (min 30-60) (WT and APP/PS1 mice [5]; WT mice) | Spontaneous behavior (activity, dark/light, habituation, kinematics, light dark phase transition pattern, sheltering) (WT and APP/PS1 mice [6]) | Overall welfare [7] | Plaque size (APP/PS1 mice; p=0.0021) | Number of plaques (APP/PS1 mice; p=0.0138) | Bioavailability in brain (Bioavailability in brain) | Protein expression of prostaglandin synthesizing enzymes [8] |
| --- | --- | --- | --- | --- | --- | --- | --- | --- | --- | --- | --- | --- | --- | --- | --- |
| Cc1c(C)c2c(c(C)c1O)CCC(C)(C(=O)O)O2 (centres unmarked) [SUL-11, 6-hydroxy-2,5,7,8-tetramethylchroman-2-carboxylic acid, reference compound] | 4620 nM | 76.7% | 8350 nM | 79.5% | clearly less effective | – | – | – | – | – | – | – | – | – | – |
| Cc1c(C)c2c(c(C)c1O)CC[C@@](C)(C(=O)N[C@@H]1CCCNC1)O2 [SUL-13, (S)-6-hydroxy-2,5,7,8-tetramethyl-N-((R)-piperidin-3-yl)chromane-2-carboxamide] | 3820 nM | 100% | 324 nM | 91.9% | – | – | – | – | – | – | – | – | – | – | – |
| Cc1c(C)c2c(c(C)c1O)CC[C@@](C)(C(=O)N1CCN(CCO)CC1)O2 [SUL-138, (S)-(6-hydroxy-2,5,7,8-tetramethylchroman-2-yl)(4-(2-hydroxyethyl)piperazin-1-yl)methanone] | 1420 nM | 100% | 660 nM | 100% | – | increased; also recorded: restored to WT levels | increased | significantly (p<0.05) higher; also recorded: restore in APP/PS1 mice memory and LTP to control levels | significantly (p<0.05) higher | did not induce differences | did not show differences | reduced | reduced | appears to be high | did not alter |
| Cc1c(C)c(O)c(CC[C@@](C)(O)C(=O)N2CCN(CCO)CC2)c(C)c1O [SUL-138M2, 4-(2,5-dihydroxy-3,4,6-trimethylphenyl)-2-hydroxy-1-(4-(2-hydroxyethyl)piperazin-1-yl)-2-methylbutan-1-one] | 4430 nM | 100% | 1690 nM | 94.7% | – | – | – | – | – | – | – | – | – | – | – |
| Cc1c(C)c2c(c(C)c1O)CC[C@](C)(C(=O)N1CCNCC1)O2 [SUL-150, (R)-(6-hydroxy-2,5,7,8-tetramethylchroman-2-yl)(piperazin-1-yl)methanone] | 122 nM | 100% | 55.5 nM | 100% | – | – | – | – | – | – | – | – | – | – | – |
| Cc1c(C)c2c(c(C)c1O)CC[C@@](C)(C(=O)N1CCNCC1)O2 [SUL-151, (S)-(6-hydroxy-2,5,7,8-tetramethylchroman-2-yl)(piperazin-1-yl)methanone] | 96.1 nM | 100% | 69.2 nM | 100% | – | – | – | – | – | – | – | – | – | – | – |
